Assay results: patent publication EP0411111B1, “AMMONIUM COMPOUND, COMPOSITION CONTAINING IT AND DESINFECTION METHOD” (FABRICOM AIR CONDITIONING S.A., priority 1989, dated 1990)

Legend:
[1] = system: Trichophyton rubrum; experiment: fungicidal test on fungal strains found around pools; type: cell-based; conditions: in 24 heures; dissolved in water at a concentration below 50 ppm with 30 ppm Cu and 100 ppb Ag
[2] = system: Chrysosporium Keratinophilium; experiment: as above; type: cell-based; conditions: in 24 heures; dissolved in water at a concentration below 50 ppm with 30 ppm Cu and 100 ppb Ag

SMILES: CCCCCCCCCCCCCCCC[N+](C)(C)CCCCCC[N+](C)(C)c1ccc(NC(=N)NC(=N)Nc2ccc([N+](C)(C)CCCCCC[N+](C)(C)CCCCCCCCCCCCCCCC)cc2)cc1 [exemple 30]
- action fongicide [1]: action fongicide
- action fongicide [2]: action fongicide
